{
  "source": "paper PMC11173382",
  "about": "“In Vitro Investigations into the Potential Drug Interactions of Pseudoginsenoside DQ Mediated by Cytochrome P450 and Human Drug Transporters” (Molecules, 2024)",
  "biological_target": "T1, hBCRP (Homo sapiens, UniProt Q9UNQ0)",
  "T1 construct": "purchased GenoMembrane DNAIG03; host or cells: Sf9 insect cell membrane vesicles",
  "T1 sequence (Q9UNQ0 1-655)": "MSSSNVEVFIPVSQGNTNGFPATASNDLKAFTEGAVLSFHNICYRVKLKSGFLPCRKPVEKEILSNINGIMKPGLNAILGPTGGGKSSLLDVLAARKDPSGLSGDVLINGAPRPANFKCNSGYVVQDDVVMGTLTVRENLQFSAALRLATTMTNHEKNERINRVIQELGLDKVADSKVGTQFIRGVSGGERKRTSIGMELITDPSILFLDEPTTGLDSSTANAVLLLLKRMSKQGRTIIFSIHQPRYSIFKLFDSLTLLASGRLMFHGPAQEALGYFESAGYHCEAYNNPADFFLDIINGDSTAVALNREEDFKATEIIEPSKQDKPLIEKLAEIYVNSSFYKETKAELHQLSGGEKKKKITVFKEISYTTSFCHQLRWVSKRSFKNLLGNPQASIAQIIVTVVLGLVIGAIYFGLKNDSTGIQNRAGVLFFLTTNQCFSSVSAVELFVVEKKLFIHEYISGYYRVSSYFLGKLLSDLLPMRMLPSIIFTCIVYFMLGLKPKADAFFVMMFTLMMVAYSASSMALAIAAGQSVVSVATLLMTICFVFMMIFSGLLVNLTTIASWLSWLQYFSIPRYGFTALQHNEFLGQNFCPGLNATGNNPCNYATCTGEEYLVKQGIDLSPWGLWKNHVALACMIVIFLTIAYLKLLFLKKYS",
  "assay": "Vesicular transport assay with sf9-BCRP vesicles (3H-ES)",
  "assay_type": "in vitro ADME",
  "settings": "for Transport activity of BCRP (main text: percentage inhibition): negative control = 100%",
  "excerpt": "Drug transporters mediate the cellular uptake and efflux of their substrates. Therefore, cell lines overexpressing a drug transporter can be utilized to investigate inhibitors of the transporter by assessing changes in substrate uptake. For each drug transporter, we selected a well-characterized inhibitor as the positive control. Radiolabeled substrates were used to indicate the decrease in transport efficiency when the drug transporters were inhibited by PDQ or the control inhibitors.\nThe concentrations of the control drugs and the substrates were stated in the assay details. Working solutions of the control inhibitors, the radiolabeled substrates, and each dose of PDQ were prepared at 200 times (200×) more concentrated solutions with DMSO for further dilution.\nTransporter-overexpressed cell lines. Human organic anion transporter-overexpressed cell lines MDCKII-OAT1 and S2-OAT3, human organic anion transport polypeptide-overexpressed cell lines HEK293A-OATP1B1 and HEK293A-OATP1B3, human organic cation transporter 2-overexpressed cell line S2-OCT2, and human multi-drug resistance protein MDR1 (or P-gp)-overexpressed cell line MDCKII-MDR1 were gifts from Japan Fuji Biomedical Co., Ltd. (Fuji, Shizuoka Prefecture, Japan). Breast cancer resistance protein-overexpressed vesicles (sf9-BCRP vesicle) were purchased from GenoMembrane Co., Ltd. (Yokohama, Kanagawa, Japan).\nVesicular transport assay with the sf9-BCRP model. Vesicular transport assay was conducted to measure the interaction between PDQ and the efflux transporter BCRP, using sf9-BCRP vesicles (Cat. No, DNAIG03, GenoMembrane, Yokohama, Kanagawa, Japan). The modulation of ^3H-ES transport reflects the level of the drug-transporter interaction.\nThe MgATP working solution was prepared by diluting the 200 mM stock solution with the transport buffer, while the reduced glutathione solution was made by dissolving glutathione (0.615 g) in 8 mL deionized water and adjusting the pH to 6.8 with 2M NaOH. The drug solution in the reaction mix was replaced with […] of transport buffer as the negative control mix. These reaction mixes were pre-incubated at 37 °C before use. All reagents were thawed on ice, and deionized water was used for the preparation.\nThe membrane suspension was gently mixed with ice-cold transport buffer and aliquoted to 1.5 mL centrifuge tubes on ice. Each tube contained […] of vesicles ([…] BCRP) and […] of transport buffer. The vesicle-containing tubes were pre-incubated at 37 °C for 5 min. Then, the reaction mixes were added to the tubes to initiate the assay. To terminate the reaction after 5 min, […] of washing buffer (40 mM MOPS-Tris and 70 mM KCl) was added to each tube on ice. The samples were then transferred to the filter and filtered. The filters were washed with 5 mL of cold washing buffer three times. Subsequently, the filters were placed at the bottom of the counting vials, and the scintillation cocktail was added. The filter and the cocktail were vigorously vortexed to mix. The remaining radiation in the samples was then measured with the scintillation counter. Each sample was replicated three times (N = 3).\nIn = [100 × (U − U0)/(Uc − U0)]%(3)\nThe results were expressed as mean ± standard deviation (SD) and analyzed with GraphPad Prism 8.0 software (CA, USA). The IC50 of PDQ was curve-fitted with the FORECAST function. Statistical significance was calculated using a two-tailed test, and a p value < 0.05 was considered as significant.",
  "data": [
    {"smiles": "CC(C)(O)[C@@H]1CC[C@@](C)([C@H]2CC[C@]3(C)[C@@H]2[C@H](O)C[C@@H]2[C@@]4(C)CC[C@H](O)C(C)(C)[C@@H]4CC[C@]23C)O1", "note": "[PDQ, (20S,24S)-dammar-20,24-epoxy-3β, 12β, 25-triol]", "values": [
      {"measurement": "DPM (3H-ES transport by BCRP)", "setting": "inhibitor 0.1 μM", "result": "5303.7±176.6", "unit": "DPM"},
      {"measurement": "Transport activity of BCRP (main text: percentage inhibition)", "setting": "inhibitor 0.1 μM", "result": "96.1±3.2", "unit": "%"},
      {"measurement": "DPM (3H-ES transport by BCRP)", "setting": "inhibitor 0.3 μM", "result": "2995.3±288.8", "unit": "DPM"},
      {"measurement": "Transport activity of BCRP (main text: percentage inhibition)", "setting": "inhibitor 0.3 μM", "result": "54.3±5.2", "unit": "%"},
      {"measurement": "DPM (3H-ES transport by BCRP)", "setting": "inhibitor 1 μM", "result": "2788.3±479.5", "unit": "DPM"},
      {"measurement": "Transport activity of BCRP (main text: percentage inhibition)", "setting": "inhibitor 1 μM", "result": "50.5±8.7", "unit": "%"},
      {"measurement": "DPM (3H-ES transport by BCRP)", "setting": "inhibitor 3 μM", "result": "2352.7±355.1", "unit": "DPM"},
      {"measurement": "Transport activity of BCRP (main text: percentage inhibition)", "setting": "inhibitor 3 μM", "result": "42.7±6.4", "unit": "%"},
      {"measurement": "DPM (3H-ES transport by BCRP)", "setting": "inhibitor 10 μM", "result": "1997.3±185.1", "unit": "DPM"},
      {"measurement": "Transport activity of BCRP (main text: percentage inhibition)", "setting": "inhibitor 10 μM", "result": "36.2±3.4", "unit": "%"},
      {"measurement": "DPM (3H-ES transport by BCRP)", "setting": "inhibitor 30 μM", "result": "1911.0±179.5", "unit": "DPM"},
      {"measurement": "IC50", "setting": "sf9-BCRP vesicles, 3H-ES 1 µM, 5 min", "result": 1080, "unit": "nM"}
    ]}
  ]
}
